Test results reported in patent US11980620B2, “Compounds and methods for treatment of Diamond Blackfan anemia” (THE CHILDREN'S MEDICAL CENTER CORPORATION, priority 2017, dated 2024).

Columns and labels:
DBA CD34-5F cells = test: NSG mice transplanted with DBA CD34-5F progenitors, erythroid proportion of human graft; assay type: in vivo
Procedure: (FIG. 10A) SMER28 rescues RBC output in rps29^+/− zebrafish embryos. The level of hemoglobin in the yolk sac was visualized 40hpf with benzidine staining. Images are representative of the proportion of embryos indicated (of total counted). (FIG. 10B) Quantitation of SMER28 rescue for a range of 0.1-1 μM, with embryos grouped by high, medium, and low levels of hemoglobin staining. (FIG. 10C) Peripheral blood (PB) RBC counts and hematocrit in mice with irradiation-induced anemia. Mice were treated with the PEG400-based vehicle containing DMSO (VEH) (n=11), 1 mg/kg Dex (sodium-phosphate) (n=13), or 10 mg/kg SMER28 (n=9) for 3 weeks, bled, and assessed. Data are combined from 3 independent experiments. (FIG. 10D) Erythroid cells as proportion of the human graft in mice transplanted with DBA CD34-5F progenitors, and treated as in (FIG. 1c). (FIG. 10E) Levels of human engraftment in NSG mouse bone marrow (BM) transplanted with CB CD34^+ cells. Mice were treated with DMSO plus vehicle (VEH) (n=10), 1 mg/kg Dex (sodium-phosphate) (n=6), or 2 mg/kg SMER28 (n=11) for 4 weeks. (FIG. 10F) The proportion of erythroid, myeloid, and lymphoid (B cells) lineages within the human graft in vehicle- and SMER28-treated mice transplanted with CB CD34^+ cells. Only the effect on the erythroid lineage was significant. Data in FIGS. 10E-10G are pooled from 2 independent experiments. […]

[1] = test system: rps29+/- zebrafish with atg5 knockdown; test: atg5 morpholino knockdown in rps29+/- zebrafish, hemoglobin staining; assay type: in vivo; conditions: 1.6 ng atg5 morpholino; SMER28 1 μM
Procedure: FIGS. 11A-11C show effect of SMER28 on CD34+ progenitors. (FIG. 11A) Protein levels of LC3-I and LC3-II in control and SMER28 treated mice. GADPH is used as a loading control. […] (FIG. 11C) Atg5 morpholino treatment of rps29^+/− zebrafish.
(FIG. 13A) Induction of autophagy by SMER28 (40 μM) monitored by protein levels of p62, LC3-I, and LC3-II after 24 hours. Cells were also treated with 5-FU (100 nM) to induce autophagy, or inhibitor of transcription actinomycin D (ActD; 100 nM). (FIG. 13B) Induction of autophagy by SMER28 (40 μM) monitored by protein levels of p62, LC3-I, and LC3-II after 24 hours treatment with or without lysosomal blockade with bafilomycin A (200 nM for 4 hours). Untreated samples are shown at higher exposure, to capture dynamic changes in the LC3-II levels. Rapamycin (200 nM) is a positive control. LC3-II levels relative to GAPDH are quantitated on the right. (FIG. 13C) Erythroid differentiation of CD34-5F cells transduced with shRNAs for luciferase (LUC) or ATG5±SMER28. Representative flow plots and quantitation showing the number of erythroid cells induced by SMER28 (10 μM) normalized to DMSO. […] Representative images (left), and quantitation (right) with embryos grouped by high, medium, and low levels of benzidine staining. […]

CB CD34+ cells = assay type: in vivo, NSG mice
Procedure: (FIG. 10A) SMER28 rescues RBC output in rps29^+/− zebrafish embryos. The level of hemoglobin in the yolk sac was visualized 40hpf with benzidine staining. Images are representative of the proportion of embryos indicated (of total counted). (FIG. 10B) Quantitation of SMER28 rescue for a range of 0.1-1 μM, with embryos grouped by high, medium, and low levels of hemoglobin staining. (FIG. 10C) Peripheral blood (PB) RBC counts and hematocrit in mice with irradiation-induced anemia. Mice were treated with the PEG400-based vehicle containing DMSO (VEH) (n=11), 1 mg/kg Dex (sodium-phosphate) (n=13), or 10 mg/kg SMER28 (n=9) for 3 weeks, bled, and assessed. Data are combined from 3 independent experiments. (FIG. 10D) Erythroid cells as proportion of the human graft in mice transplanted with DBA CD34-5F progenitors, and treated as in (FIG. 1c). (FIG. 10E) Levels of human engraftment in NSG mouse bone marrow (BM) transplanted with CB CD34^+ cells. Mice were treated with DMSO plus vehicle (VEH) (n=10), 1 mg/kg Dex (sodium-phosphate) (n=6), or 2 mg/kg SMER28 (n=11) for 4 weeks. (FIG. 10F) The proportion of erythroid, myeloid, and lymphoid (B cells) lineages within the human graft in vehicle- and SMER28-treated mice transplanted with CB CD34^+ cells. Only the effect on the erythroid lineage was significant. Data in FIGS. 10E-10G are pooled from 2 independent experiments. For all panels, *p<0.05, * *p<0.01.
Drug treatments. SMER28 was purchased from Tocris and diluted in 10 mM aliquots in DMSO. The final concentration for CD34-5F and CB CD34^+erythroid treatments was 0.2-10 μM as indicated in the text. The final concentration for K562 cell treatments was 20-40 μM. Ferric citrate (1-50 μM) and deferoxamine (100-200 μM) (Sigma) were dissolved in PBS and added on days 0-4 of “expansion” culture, and washed off prior to erythroid stage I (days 4-9) differentiation. For in vivo experiments, SMER28 aliquots were diluted in vehicle solution: 30% PEG-400, 5% propylene glycol, and 0.5% Tween-80. Dosing for human xenograft experiments was 2 mg/kg; for mouse models 10-20 mg/kg. Dexamethasone was purchased as Dex-sodium phosphate (DexSP) water-soluble formulation (Santa Cruz), and diluted in PBS vehicle (1 mg/kg). NSG mice were sub-lethally irradiated at 275 rads, and administered 100 μl of drug or vehicle by oral gavage daily.

Structure (SMILES): C=CCNc1ncnc2ccc(Br)cc12 [SMER28, 6-Bromo-N-2-propenyl-4-quinazolinam]
- output of GlyA+ RBCs from DBA CD34-5F cells (DBA CD34-5F cells): increased
- rescue of erythropoiesis after atg5 knockdown [1]: abolished
- distribution of myeloid and lymphoid lineages in human graft (CB CD34+ cells; 2 mg/kg SMER28 for 4 weeks): did not affect
- erythroid contribution to human graft (RBCs as proportion of human graft) (CB CD34+ cells; 2 mg/kg SMER28 for 4 weeks, vehicle 5.5%, p=0.05): 13.0%
- human chimerism in bone marrow (CB CD34+ cells; 2 mg/kg for 4 weeks, ns vs vehicle): 25.2%
